Data taken from patent publication US12605350B2, “Composition for preventing, ameliorating, or treating disease caused by nitration of tyrosine in proteins comprising tyrosine as effective component” (INDUSTRY-ACADEMIC COOPERATION FOUNDATION GYEONGSANG …, priority 2020, dated 2026).

Target: T1, human recombinant MnSOD (Homo sapiens, UniProt P04179)
T1 sequence (P04179 25-222): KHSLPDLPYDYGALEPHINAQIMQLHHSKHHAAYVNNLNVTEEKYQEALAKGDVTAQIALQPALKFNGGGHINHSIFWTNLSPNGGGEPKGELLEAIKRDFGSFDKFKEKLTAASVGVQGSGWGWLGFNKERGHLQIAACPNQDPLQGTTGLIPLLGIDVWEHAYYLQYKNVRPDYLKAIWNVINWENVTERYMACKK
Assay: SOD activity of human recombinant MnSOD treated with peroxynitrite
Type: biochemical
Conditions: human recombinant MnSOD with peroxynitrite (2.1 mM PN), 10 minutes on ice
Experimental: Peroxynitrite was diluted by 40 times with 0.3 M NaOH, and absorbance at 302 nm was measured. Then, it was quantified by using the molar absorption coefficient of peroxynitrite) (ε302=1670 M^−1 cm^−1).
For the measurement of SOD activity, SOD colorimetric activity kit by ThermoFisher was used. Human recombinant MnSOD within reference SOD range, peptide, and peroxynitrite were admixed with one another, and the reaction was allowed to occur on ice for 10 minutes. To a 96-well plate, 10 μl of reference SOD or the reaction mixture, and 50 μl of a substrate solution provided in the kit were added, and the absorbance at 450 nm was measured. After adding 25μl of xanthine oxidase provided in the kit and allowing the reaction to occur for 20 minutes at room temperature, absorbance at 450 nm was measured. By using the data obtained by subtracting the first-measured absorbance from the second-measured absorbance, SOD activity was obtained.

Structure (SMILES): N[C@H](Cc1ccc(O)cc1)C(=O)O [D-tyrosine]
- MnSOD (SOD) activity: higher MnSOD activity
